{"source": "patent US20130296239A1", "about": "“Material for Wound Healing and Skin Reconstruction” (3-D Matrix, Ltd., priority 2007, published 2013)", "key": {"[1]": {"system": "wound area of skin wound model mice", "experiment": "Histopathological observation of wound area on Day 28", "type": "in vivo, nude mice", "parameters": "key to Vascularization: 0: Decreased vascularity compared to normal dermis.; 1: Dermal vascularity within normal limits.; 2: Minimally increased prominence of dermal or wound capillaries.; 3: Mild increase in prominence of dermal or wound capillaries.; 4: Moderate increase in prominence of dermal or wound capillaries; key to Collagen quality: 0: Lack of fibroplasia and/or collagen in wound.; 1: Minimal to mild fibroplasia in the granulation tissue of the wound.; 2: Moderate fibroplasia and collagen throughout the wound.; 3: Superficial portion of the wound has dense collagen similar to normal dermal collagen.; 4: Dense collagen throughout the wound; key to Inflammation: 0: No increase in inflammatory cells (within normal limits for dermis of nude mice).; 1: Minimal increase in inflammatory cells.; 2: Mild increase in inflammatory cells.; 3: Moderate increase in inflammatory cells.; 4: Marked increase in inflammatory cells; key to Epithelization: 0: No re-epithelization.; 1: Partial re-epithelization. (Wound surface is not completely covered by epithelial cells.); 2: Re-epithelization across the full surface of the wound, but the epithelium is not a stratified squamous epithelium with multiple strata; 3: Re-epithelization across the full surface of the wound with a stratified squamous epithelium and keratinization, but there is evidence of active remodeling; 4: Complete re-epithelization with a keratinized stratified squamous epithelium with remodeling and organization within normal limits", "experimental": "In order to evaluate parameters of wound healing in the skin of nude mice from three groups, histopathological examination was carried out.\nAfter the observation on Day 28, each mouse was sacrificed and a paraffin block containing the wound area, through the center of each wound perpendicular to the apparent longest axis was produced. A hematoxylin and eosin-stained and a trichrome-stained histologic sections were prepared from each block. Using the H&E-stained section, the epithelization, vascularization, and inflammation associated with the wound were ranked, and using the trichrome-stained section the amount and quality of collagen in the area of the wound were evaluated. The results of these evaluations were shown in Table 2-1 (control group), Table 2-2 (test group-1), and Table 2-3 (test group-2).\nDefinitions for each score are as follows.\n0=No re-epithelization. 1=Partial re-epithelization. (Wound surface is not completely covered by epithelial cells.) 2=Re-epithelization across the full surface of the wound, but the epithelium is not a stratified squamous epithelium with multiple strata (stratum basale, stratum spinosum, stratum granulosum). 3=Re-epithelization across the full surface of the wound with a stratified squamous epithelium and keratinization, but there is evidence of active remodeling in the form of apoptotic or necrotic cells or dyskeratosis, or multiple mitotic figures, or irregular thickness or irregular strata (hyperplasia). 4=Complete re-epithelization with a keratinized stratified squamous epithelium with remodeling and organization within normal limits. (The only alteration is lack of hair follicles and adenexia in the dermis.)\n0=Decreased vascularity compared to normal dermis. 1=Dermal vascularity within normal limits. […] Increased prominence may be due to increased number, dilation (congestion or hyperemia), or increased size. 3=Mild increase in prominence of dermal or wound capillaries. 4=Moderate increase in prominence of dermal or wound capillaries. <Inflammation> Inflammation consisted of increased number of neutrophils and macrophages in the dermis and scar tissue beneath the epidermis. […] 0=No increase in inflammatory cells (within normal limits for dermis of nude mice). 1=Minimal increase in inflammatory cells. Inflammation tends to be multifocal, perivascular. 2=Mild increase in inflammatory cells. Inflammation tends to be multifocal, perivascular. 3=Moderate increase in inflammatory cells. 4=Marked increase in inflammatory cells.\n0=Lack of fibroplasia and/or collagen in wound. 1=Minimal to mild fibroplasia in the granulation tissue of the wound. 2=Moderate fibroplasia and collagen throughout the wound. 3=Superficial portion of the wound has dense collagen similar to normal dermal collagen. 4=Dense collagen throughout the wound. There are relatively fewer fibroblasts and the collagen is slightly denser than normal dermis.\nDepth of collagen (μm) beneath the epithelium in the wound was estimated at the thickest portion of the collagen using an ocular micrometer that was calibrated with an objective micrometer (×10)."}, "[2]": {"settings": "liquid when pH is not higher than 5.0; cited from earlier work"}, "[3]": {"system": "skin wound model mice (1 cm×1 cm wound)", "experiment": "Skin wound model of mice: wound area and observation of the affected area", "type": "in vivo, NTaC:NIHS-Foxn1 <nu> type nude mice", "experimental": "30 NTaC:NIHS-Foxn1 type nude mice (female, weight ˜20 g) were used as experimental animals. The mice were housed in the condition of a temperature of 17 to 26° C., a relative humidity of 30 to 70%, a 12-hour light/dark cycle, minimum of ten fresh air changes/hour, and diet was provided once daily and the mice had access to water ad libitum.\nAnesthesia was induced by placing the mice in a chamber filled with isoflurane at 2.5 to 4%, and maintained with isoflurane delivered through a nose cone at 0.5 to 2.5%.\nAll residual hair was removed from the upper right dorsum, and the operative area was cleaned with three alternating scrubs of povidone-iodine scrub and 70% alcohol. Once the alternating scrubs were complete, a final application of povidone-iodine scrub was applied and allowed to dry. The area was draped for aseptic surgery.\nForceps were used to pinch up a fold of skin (at what would become the lower right corner of the wound), and scissors were used to separate the skin and create a 1 cm×1 cm wound. Blood was soaked up with a sterile gauze pad.\n(b-1) The centrifuge tube was placed into a cool water bath. The bath was sonicated for 30 min, and then the contents of the tube were vortexed for one minute. Air bubbles were then removed via centrifugation (3000 rpm, 1 min). Vortexing and centrifugation were repeated as necessary to remove all bubbles. The 1% PuraMatrix (trade mark) solution was prepared and administered to animals in test group-1.\n(b-2) The 5 ng/μL hbFGF PBS solution (20 μL) was added to the sterile centrifuge tube previously containing 1 mL of 1% PuraMatrix (trade mark). The mixture was then vortexed to homogenize. The centrifuge tube was placed into the cool water bath and sonicated for 30 min, vortexed for 1 min, then centrifuged at room temperature (3000 rpm, 1 min) to remove air bubbles. Vortexing and centrifugation were repeated as necessary to remove all air bubbles. The PuraMatrix+hbFGF solution obtained was administered to animals in the test group-2.\nThe 30 skin wound model mice produced in (a) were divided into three groups of 10 mice, and treated according to the scheme in Table 1 immediately after the surgical procedure. The day when surgical procedure was performed (wound creation) was regarded as Day 0. Observation of wound area was performed at just before a treatment on Day 0 (FIG. 1), Day 7 (FIG. 2), Day 14 (FIG. 3), Day 21 (FIG. 4) and Day 28 (FIG. 5).\nBaseline wound measurements were recorded prior to the application of the first dressing. Weekly measurements were obtained by removing the dressing of self-assembling hydropeptide gel (for the control group, a petroleum jelly impregnated gauze only) and exposing the wound site. A ruler was placed adjacent to the wound area and digital photographs were obtained, thereafter, the wound was re-dressed with the self-assembling hydropeptide gel (for the control group, a petroleum jelly impregnated gauze only). Wound area was calculated using ImageJ version 1.37 at the NIH website."}, "[4]": {"settings": "Day 28, compared to control group"}, "[5]": {"settings": "rank score, Day 28, H&E-stained section, one value per mouse"}}, "note": "Several values for one entry are separate records, joined by “and”; a condition that tells them apart may be missing. Equal entries are not always repeated.", "data": [{"substance": "Ac-(RADA)4-CONH2 [PuraMatrix]", "values": [{"measurement": "Collagen depth", "setting": "[1]; Day 28, beneath the epithelium at thickest portion of collagen, one value per mouse", "value": "550 μm (2×) and 250 μm (3×) and 470 μm and 500 μm (2×) and 540 μm and 200 μm"}, {"measurement": "ranking of epithelization and vascularization across groups", "setting": "[1]; Day 28, compared across the three groups", "value": "little difference"}, {"measurement": "mice with an inflammation rank 0", "setting": "[1]; [4]", "value": "larger numbers of mice"}, {"measurement": "mice with dense collagen throughout the wound scar", "setting": "[1]; [4]", "value": "larger numbers of mice"}, {"measurement": "typical state of wound area structure in pathological section", "setting": "[1]; Day 28, photomicrograph, compared to control group (FIG. 8, FIG. 9)", "value": "there is dense collagen so that the dermis 2 is slightly more stained"}, {"measurement": "mice with rank scores 4, 1, 0, 4 (most advanced wound healing)", "setting": "[1]; Day 28, no mice in control group", "value": "one"}, {"measurement": "Epithelization", "setting": "[1]; [5]", "value": "4 (5×) and 3 (5×)"}, {"measurement": "Inflammation", "setting": "[1]; [5]", "value": "1 (5×) and 0 (3×) and 2 (2×)"}, {"measurement": "Vascularization", "setting": "[1]; [5]", "value": "2 (6×) and 1 (4×)"}, {"measurement": "Collagen quality", "setting": "[1]; rank score, Day 28, trichrome-stained section, one value per mouse", "value": "3 (3×) and 4 (7×)"}, {"measurement": "pH at which the peptide solution forms a gel (self-assembles into nanofibers)", "setting": "[2]", "value": "higher than 5.0"}, {"measurement": "wound area", "setting": "[3]; Day 7, compared to control group (FIG. 2)", "value": "decreased drastically"}, {"measurement": "healing rate (ratio of the wound area to the area when wound created, FIG. 6)", "setting": "[3]; Day 7 and Day 14, compared to control group, 100 μL to wound area", "value": "healing more quickly than those in the control group"}, {"measurement": "healing of the wound area", "setting": "[3]; Day 14 (FIG. 3)", "value": "almost complete"}, {"measurement": "healing of the wounds", "setting": "[3]; Day 21 (FIG. 4)", "value": "completely healed"}, {"measurement": "puckering of skin", "setting": "[3]; Day 21, compared to control group (FIG. 4)", "value": "less puckering of skin"}, {"measurement": "scar", "setting": "[3]; Day 28, observation before dissection", "value": "visible in all animals"}, {"measurement": "wound contraction noted", "setting": "[3]; Day 28, observation before dissection, all animals in control group (FIG. 5)", "value": "8/10"}, {"measurement": "overall wound healing effect", "setting": "[3]; conclusion from Day 0-28 observations", "value": "significant healing effect visibly recognized"}]}]}
